Results from patent EP4810052A2, “HCRHR2 SELECTIVE POLYPEPTIDES” (Gubra A/S, priority 2023, dated 2026).
Where two headings read alike, the source gives them in different places. Starred links: 1 amine or outer side, 2 acyl side, 3 side chain; linkers in the order of their positions; H or OH if unused. Non-standard residues stand in square brackets, D forms with d. Residues, ends and D or L forms follow the SMILES beside them. Groups on a side chain read outwards from the residue. *: point of attachment. C20 diacid = O=C(O)CCCCCCCCCCCCCCCCCCC(=O)*; Pro(cis-4-F) = O=C(O)[C@@H]1C[C@H](F)CN1; γGlu = O=C(O)[C@H](CCC(=O)[*:2])N[*:1]; NMeI = CC[C@H](C)[C@H](NC)C(=O)O; Nle = CCCC[C@H](N)C(=O)O; Ac5c = NC1(C(=O)O)CCCC1; AEEA = NCCOCCOCC(=O)O; Aib = CC(C)(N)C(=O)O

What was measured:
hCRHR2 = molecular target: T1, hCRHR2 (Homo sapiens, UniProt Q13324); assay: HTRF cAMP assay, determination of hCRHR2 potency (peptide libraries 5 conc., purified peptides 11 conc.); format: cell-based
T1 sequence (Q13324 1-411): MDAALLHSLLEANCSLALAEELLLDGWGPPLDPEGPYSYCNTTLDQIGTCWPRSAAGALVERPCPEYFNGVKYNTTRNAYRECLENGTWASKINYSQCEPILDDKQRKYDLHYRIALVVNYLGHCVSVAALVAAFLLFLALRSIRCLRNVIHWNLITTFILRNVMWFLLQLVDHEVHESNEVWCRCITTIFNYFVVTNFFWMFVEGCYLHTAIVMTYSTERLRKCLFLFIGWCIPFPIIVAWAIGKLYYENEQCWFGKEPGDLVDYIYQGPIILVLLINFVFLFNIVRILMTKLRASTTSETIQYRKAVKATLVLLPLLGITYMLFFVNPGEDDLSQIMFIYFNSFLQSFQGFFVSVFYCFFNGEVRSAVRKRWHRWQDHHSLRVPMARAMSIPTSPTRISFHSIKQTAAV
Outline: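 CHO-K1 cells stably expressing human CRHR2 were thawed from frozen stocks immediately before use and assayed in suspension with agonist peptides. cAMP was measured by time-resolved FRET in a competitive immunoassay between cryptate-labelled anti-cAMP antibody and d2-labelled cAMP. EC50 values came from nonlinear regression, sigmoid variable-slope fit.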

hCRHR1 = molecular target: T2, hCRHR1 (Homo sapiens, UniProt P34998); assay: HTRF cAMP assay, determination of hCRHR1 potency (peptide libraries 5 conc., purified peptides 11 conc.); format: cell-based
T2 sequence (P34998 24-415): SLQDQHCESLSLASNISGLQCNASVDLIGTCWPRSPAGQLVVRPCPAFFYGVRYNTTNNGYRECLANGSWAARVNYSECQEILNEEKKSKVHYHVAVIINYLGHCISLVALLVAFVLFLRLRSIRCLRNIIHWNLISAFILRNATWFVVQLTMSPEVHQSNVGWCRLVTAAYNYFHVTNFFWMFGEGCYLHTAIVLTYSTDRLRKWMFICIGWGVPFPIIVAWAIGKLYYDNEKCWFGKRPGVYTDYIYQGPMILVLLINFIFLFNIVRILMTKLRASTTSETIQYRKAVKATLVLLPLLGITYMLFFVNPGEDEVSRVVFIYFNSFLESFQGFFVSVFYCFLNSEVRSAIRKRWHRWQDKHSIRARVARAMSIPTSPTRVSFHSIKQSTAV
Outline: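 CHO-K1 cells stably expressing human CRHR1, thawed from frozen stocks just before use, were stimulated in suspension with agonist peptides. cAMP was measured by HTRF competitive immunoassay (cryptate anti-cAMP antibody vs d2-cAMP).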

[1] = library peptides, matched molecular pairs L vs Nle in position X^38, read-out: Potency hCRHR2 pEC50 (converted)
[2] = library peptides, matched molecular pairs L vs Nle in position X^38, read-out: Potency hCRHR1 pEC50 (converted)
[3] = Table 4, library peptides having X^38 = Nle, read-out: hCRHR2 pEC50 (converted)
[4] = Table 4, library peptides having X^38 = Nle, read-out: hCRHR1 pEC50 (converted)

Row | Structure (SMILES) | EC50 (hCRHR2; [1]) | EC50 (hCRHR1; [2]) | EC50 (hCRHR2; [3]) | EC50 (hCRHR1; [4])
1 | CCCC[C@H](NC(=O)[C@@H](NC(=O)[C@H](CCC(=O)O)NC(=O)[C@H](C)NC(=O)[C@H](CC(N)=O)NC(=O)[C@@H](NC(=O)[C@H](CCCCNC(=O)COCCOCCNC(=O)COCCOCCNC(=O)CC[C@H](NC(=O)CC[C@H](NC(=O)CCCCCCCCCCCCCCCCCCC(=O)O)C(=O)O)C(=O)O)NC(=O)[C@H](C)NC(=O)[C@H](CCCNC(=N)N)NC(=O)[C@H](CCC(=O)O)NC(=O)[C@H](CCCNC(=N)N)NC(=O)[C@H](C)NC(=O)[C@H](C)NC(=O)[C@H](CCC(N)=O)NC(=O)[C@H](C)NC(=O)[C@H](CCCNC(=N)N)NC(=O)[C@H](C)NC(=O)[C@H](CCC(N)=O)NC(=O)[C@H](CCC(=O)O)NC(=O)[C@H](CC(C)C)NC(=O)[C@H](CC(C)C)NC(=O)[C@@H](NC(=O)[C@H](CCC(N)=O)NC(=O)[C@H](CC(C)C)NC(=O)[C@H](CC(C)C)NC(=O)CNC(=O)[C@@H](NC(=O)[C@@H]1CCCN1C(=O)[C@@H](NC(=O)[C@H](CC(=O)O)NC(=O)[C@H](CC(C)C)NC(=O)[C@H](CO)NC(=O)[C@H](CC(C)C)NC(=O)[C@@H](NC(=O)[C@@H](N)[C@@H](C)CC)C(C)C)C(C)C)[C@@H](C)CC)[C@@H](C)CC)[C@@H](C)O)[C@@H](C)CC)C(=O)N[C@@H](C)C(=O)N[C@@H](CCC(=O)O)C(=O)N[C@H](C(N)=O)C(C)C [compound 49] (H-IVLSLDVPIGLLQILLEQARAQAARERAK([AEEA-AEEA-γGlu-γGlu-C20 diacid])TNAEI[Nle]AEV-NH2) | 0.126 nM | 3160 nM |  | 
2 | CC[C@H](C)[C@H](N)C(=O)N[C@H](C(=O)N[C@@H](CC(C)C)C(=O)N[C@@H](CO)C(=O)N[C@@H](CC(C)C)C(=O)N[C@@H](CC(=O)O)C(=O)NC1(C(=O)N2C[C@@H](F)C[C@H]2C(=O)N[C@H](C(=O)NCC(=O)N[C@@H](CC(C)C)C(=O)N[C@@H](CC(C)C)C(=O)N[C@@H](CCC(N)=O)C(=O)N[C@H](C(=O)N[C@@H](CC(C)C)C(=O)N[C@@H](CC(C)C)C(=O)N[C@@H](CCC(=O)O)C(=O)N[C@@H](CCC(N)=O)C(=O)N[C@@H](C)C(=O)N[C@@H](CCCNC(=N)N)C(=O)N[C@@H](C)C(=O)N[C@@H](CCCNC(=N)N)C(=O)N[C@@H](C)C(=O)N[C@@H](C)C(=O)N[C@@H](CCCNC(=N)N)C(=O)N[C@@H](CCC(=O)O)C(=O)N[C@@H](CCC(N)=O)C(=O)N[C@@H](C)C(=O)N[C@@H](CCCCNC(=O)COCCOCCNC(=O)COCCOCCNC(=O)CC[C@H](NC(=O)CC[C@H](NC(=O)CCCCCCCCCCCCCCCCCCC(=O)O)C(=O)O)C(=O)O)C(=O)N[C@H](C(=O)N[C@@H](CC(N)=O)C(=O)N[C@@H](C)C(=O)N[C@@H](CCC(=O)O)C(=O)N[C@H](C(=O)N[C@@H](CC(C)C)C(=O)N[C@@H](C)C(=O)N[C@@H](CCC(=O)O)C(=O)N[C@H](C(N)=O)C(C)C)[C@@H](C)CC)[C@@H](C)O)[C@@H](C)CC)[C@@H](C)CC)CCCC1)C(C)C [compound 86] (H-IVLSLD[Ac5c][Pro(cis-4-F)]IGLLQILLEQARARAAREQAK([AEEA-AEEA-γGlu-γGlu-C20 diacid])TNAEILAEV-NH2) | 0.631 nM | 3.16 nM |  | 
3 | CC[C@H](C)[C@H](N)C(=O)N[C@H](C(=O)N[C@@H](CC(C)C)C(=O)N[C@@H](CO)C(=O)N[C@@H](CC(C)C)C(=O)N[C@@H](CC(=O)O)C(=O)N[C@H](C(=O)N1CCC[C@H]1C(=O)N[C@H](C(=O)NCC(=O)N[C@@H](CC(C)C)C(=O)N[C@@H](CC(C)C)C(=O)N[C@@H](CCC(N)=O)C(=O)N[C@H](C(=O)N[C@@H](CC(C)C)C(=O)N[C@@H](CC(C)C)C(=O)N[C@@H](CCC(=O)O)C(=O)N[C@@H](CCC(N)=O)C(=O)N[C@@H](C)C(=O)N[C@@H](CCCNC(=N)N)C(=O)N[C@@H](C)C(=O)N[C@@H](CCCNC(=N)N)C(=O)N[C@@H](CO)C(=O)N[C@@H](C)C(=O)N[C@@H](CCCNC(=N)N)C(=O)N[C@@H](CCC(=O)O)C(=O)N[C@@H](CCC(N)=O)C(=O)N[C@@H](C)C(=O)N[C@@H](CCCCNC(=O)COCCOCCNC(=O)COCCOCCNC(=O)CC[C@H](NC(=O)CC[C@H](NC(=O)CCCCCCCCCCCCCCCCCCC(=O)O)C(=O)O)C(=O)O)C(=O)N[C@H](C(=O)N[C@@H](CC(N)=O)C(=O)N[C@@H](C)C(=O)N[C@@H](CCC(=O)O)C(=O)N[C@H](C(=O)N[C@@H](CC(C)C)C(=O)N[C@@H](C)C(=O)N[C@@H](CCC(=O)O)C(=O)N[C@H](C(N)=O)C(C)C)[C@@H](C)CC)[C@@H](C)O)[C@@H](C)CC)[C@@H](C)CC)C(C)C)C(C)C [compound 60] (H-IVLSLDVPIGLLQILLEQARARSAREQAK([AEEA-AEEA-γGlu-γGlu-C20 diacid])TNAEILAEV-NH2) | 0.501 nM | 25100 nM |  | 

Second part, the compound after the results:

Row | EC50 (hCRHR2; [1]) | EC50 (hCRHR1; [2]) | EC50 (hCRHR2; [3]) | EC50 (hCRHR1; [4]) | Structure (SMILES)
4 |  |  | 0.0316 nM | 1000 nM | CCCC[C@H](NC(=O)[C@@H](NC(=O)[C@H](CCC(=O)O)NC(=O)C(C)(C)NC(=O)[C@H](CC(N)=O)NC(=O)[C@@H](NC(=O)[C@H](CCCCNC(=O)COCCOCCNC(=O)COCCOCCNC(=O)CC[C@H](NC(=O)CC[C@H](NC(=O)CCCCCCCCCCCCCCCCCCC(=O)O)C(=O)O)C(=O)O)NC(=O)[C@H](C)NC(=O)[C@H](CCC(N)=O)NC(=O)[C@H](CCC(=O)O)NC(=O)[C@H](CCCNC(=N)N)NC(=O)[C@H](C)NC(=O)[C@H](C)NC(=O)[C@H](CCCNC(=N)N)NC(=O)[C@H](C)NC(=O)[C@H](CCCNC(=N)N)NC(=O)[C@H](C)NC(=O)[C@H](CCC(N)=O)NC(=O)[C@H](C)NC(=O)[C@H](CC(C)C)NC(=O)[C@H](CC(C)C)NC(=O)[C@@H](NC(=O)[C@H](CCC(N)=O)NC(=O)[C@H](CC(C)C)NC(=O)[C@H](CC(C)C)NC(=O)CNC(=O)[C@@H](NC(=O)[C@@H]1CCCN1C(=O)[C@@H](NC(=O)[C@H](CC(=O)O)NC(=O)[C@H](CC(C)C)NC(=O)[C@H](CO)NC(=O)[C@H](CC(C)C)NC(=O)[C@@H](NC(=O)[C@@H](NC)[C@@H](C)CC)C(C)C)C(C)C)[C@@H](C)CC)[C@@H](C)CC)[C@@H](C)O)[C@@H](C)CC)C(=O)N[C@@H](C)C(=O)N[C@@H](CCC(=O)O)C(=O)N[C@H](C(N)=O)C(C)C [compound 196] (H-[NMeI]VLSLDVPIGLLQILLAQARARAAREQAK([AEEA-AEEA-γGlu-γGlu-C20 diacid])TN[Aib]EI[Nle]AEV-NH2)
5 |  |  | 0.00794 nM | 794 nM | CCCC[C@H](NC(=O)[C@@H](NC(=O)[C@H](CCC(=O)O)NC(=O)[C@H](C)NC(=O)[C@H](CC(N)=O)NC(=O)C(C)(C)NC(=O)[C@H](CCCCNC(=O)COCCOCCNC(=O)COCCOCCNC(=O)CC[C@H](NC(=O)CC[C@H](NC(=O)CCCCCCCCCCCCCCCCCCC(=O)O)C(=O)O)C(=O)O)NC(=O)[C@H](C)NC(=O)[C@H](CCC(N)=O)NC(=O)[C@H](CCC(=O)O)NC(=O)[C@H](CCCNC(=N)N)NC(=O)[C@H](C)NC(=O)[C@H](C)NC(=O)[C@H](CCCNC(=N)N)NC(=O)[C@H](C)NC(=O)[C@H](CCCNC(=N)N)NC(=O)[C@H](C)NC(=O)[C@H](CCC(N)=O)NC(=O)[C@@H](NC(=O)[C@H](CC(C)C)NC(=O)[C@H](CC(C)C)NC(=O)[C@@H](NC(=O)[C@H](CCC(N)=O)NC(=O)[C@H](CC(C)C)NC(=O)[C@H](CC(C)C)NC(=O)CNC(=O)[C@@H](NC(=O)[C@@H]1CCCN1C(=O)[C@@H](NC(=O)[C@H](CC(=O)O)NC(=O)[C@H](CC(C)C)NC(=O)[C@H](CO)NC(=O)[C@H](CC(C)C)NC(=O)[C@@H](NC(=O)[C@@H](NC)[C@@H](C)CC)C(C)C)C(C)C)[C@@H](C)CC)[C@@H](C)CC)[C@@H](C)O)[C@@H](C)CC)C(=O)N[C@@H](C)C(=O)N[C@@H](CCC(=O)O)C(=O)N[C@H](C(N)=O)C(C)C [compound 134] (H-[NMeI]VLSLDVPIGLLQILLTQARARAAREQAK([AEEA-AEEA-γGlu-γGlu-C20 diacid])[Aib]NAEI[Nle]AEV-NH2)
